Test results taken from the supplement of paper PMC10307832.

What was measured:
Test in all cases: relative viability (nuclei count vs DMSO), 5 days (fraction); higher = more cells survive
[1] = compound: CS(=O)(=O)c1ccc(C(=O)Nc2ccc(Cl)c(-c3ccccn3)c2)c(Cl)c1 [Vismodegib] + Nc1ncn([C@H]2C[C@H](O)[C@@H](CO)O2)c(=O)n1 [Decitabine] (partner 2 µM)
Method in brief: (§1)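 Dosing by pin tool came one day after lung cancer cell lines were seeded in 1536-well plates, using either one drug or a fixed anchor-drug dose plus five library-drug doses (not always all listed) in √10 steps. After 5 days, nuclei were counted on 4× images. Relative viability is treated-well nuclei count divided by vehicle-well nuclei count, and values are medians of duplicate plates.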

[2] = compound: N#CC[C@H](C1CCCC1)n1cc(-c2ncnc3[nH]ccc23)cn1 [Ruxolitinib] + O=C(CCCCCCC(=O)Nc1ccccc1)NO [Vorinostat] (partner 1 µM)
Method in brief: as §1

[3] = compound: N#CC[C@H](C1CCCC1)n1cc(-c2ncnc3[nH]ccc23)cn1 [Ruxolitinib] + CC(=O)c1c(C)c2cnc(Nc3ccc(N4CCNCC4)cn3)nc2n(C2CCCC2)c1=O [Palbociclib] (partner 0.5 µM)
Method in brief: as §1

[4] = compound: CS(=O)(=O)c1ccc(C(=O)Nc2ccc(Cl)c(-c3ccccn3)c2)c(Cl)c1 [Vismodegib] + Cc1nc(NC(=O)N2CCC[C@H]2C(N)=O)sc1-c1ccnc(C(C)(C)C(F)(F)F)c1 [Alpelisib] (partner 2 µM)
Method in brief: as §1

Row | Cell Line | relative viability ([1]; first compound 0.08 µM) | relative viability ([1]; first compound 0.253 µM) | relative viability ([1]; first compound 0.8 µM) | relative viability ([1]; first compound 2.53 µM) | relative viability ([1]; first compound 8 µM) | relative viability ([2]; first compound 0.08 µM) | relative viability ([2]; first compound 0.253 µM) | relative viability ([2]; first compound 0.8 µM) | relative viability ([2]; first compound 2.53 µM) | relative viability ([2]; first compound 8 µM) | relative viability ([3]; first compound 0.08 µM) | relative viability ([3]; first compound 0.253 µM) | relative viability ([3]; first compound 0.8 µM) | relative viability ([3]; first compound 2.53 µM) | relative viability ([3]; first compound 8 µM) | relative viability ([4]; first compound 0.08 µM) | relative viability ([4]; first compound 0.253 µM) | relative viability ([4]; first compound 0.8 µM) | relative viability ([4]; first compound 2.53 µM) | relative viability ([4]; first compound 8 µM)
1 | RERF-LC-KJ | 0.704 | 0.7 | 0.765 | 0.654 | 0.633 | 0.73 | 0.859 | 0.841 | 0.867 | 0.66 | 1.03 | 1.13 | 1.25 | 1.13 | 0.934 | 0.789 | 0.748 | 0.909 | 0.748 | 0.773
2 | NCI-H1437 | 0.587 | 0.533 | 0.606 | 0.554 | 0.501 | 1.14 | 1.04 | 1.1 | 0.859 | 0.627 | 0.541 | 0.41 | 0.448 | 0.417 | 0.378 | 0.972 | 0.901 | 1.06 | 0.961 | 0.987
3 | NCI-H1915 | 0.265 | 0.264 | 0.236 | 0.245 | 0.258 | 0.467 | 0.488 | 0.565 | 0.461 | 0.332 | 0.515 | 0.516 | 0.579 | 0.443 | 0.481 | 0.996 | 1.09 | 1.07 | 1.03 | 1.12
4 | SK-MES-1 | 0.401 | 0.341 | 0.435 | 0.374 | 0.443 | 1.19 | 1.07 | 1.01 | 0.968 | 0.949 | 0.331 | 0.336 | 0.332 | 0.305 | 0.321 | 0.851 | 0.956 | 0.802 | 0.827 | 0.837
5 | NCI-H522 | 0.634 | 0.64 | 0.637 | 0.686 | 0.621 | 0.949 | 0.868 | 0.978 | 0.873 | 0.859 | 1.12 | 1.09 | 1.16 | 0.869 | 0.933 |  |  |  |  | 
6 | NCI-H1299 |  |  |  |  |  |  |  |  |  |  |  |  |  |  |  | 0.984 | 1.04 | 1.06 | 0.973 | 1.04
7 | NCI-H2228 |  |  |  |  |  | 0.595 | 0.717 | 0.9 | 0.69 | 0.37 | 0.622 | 0.812 | 0.843 | 0.713 | 0.219 | 0.643 | 0.952 | 0.606 | 0.622 | 0.758
8 | NCI-H1792 | 0.513 | 0.478 | 0.532 | 0.481 | 0.521 |  |  |  |  |  | 0.595 | 0.565 | 0.631 | 0.632 | 0.575 | 0.608 | 0.687 | 0.615 | 0.667 | 0.647
9 | NCI-H596 | 0.889 | 0.967 | 0.979 | 0.997 | 1.07 | 0.713 | 0.638 | 0.743 | 0.589 | 0.454 |  |  |  |  |  | 0.438 | 0.448 | 0.51 | 0.472 | 0.545
10 | EBC-1 |  |  |  |  |  |  |  |  |  |  |  |  |  |  |  | 0.838 | 0.891 | 0.876 | 0.789 | 0.891
11 | ChaGo-K-1 | 0.503 | 0.508 | 0.504 | 0.505 | 0.561 | 0.771 | 0.764 | 0.707 | 0.62 | 0.637 | 0.909 | 0.924 | 0.906 | 0.8 | 0.789 |  |  |  |  | 
12 | NCI-H2342 | 0.752 | 0.637 | 0.709 | 0.804 | 0.89 | 0.82 | 0.706 | 0.833 | 0.724 | 0.823 | 0.53 | 0.496 | 0.49 | 0.543 | 0.541 |  |  |  |  | 
13 | Calu-6 |  |  |  |  |  |  |  |  |  |  |  |  |  |  |  | 0.97 | 0.976 | 0.901 | 1.09 | 0.979
14 | NCI-H1703 |  |  |  |  |  |  |  |  |  |  |  |  |  |  |  | 0.315 | 0.311 | 0.407 | 0.306 | 0.422
15 | NCI-H1563 |  |  |  |  |  |  |  |  |  |  |  |  |  |  |  | 0.896 | 0.88 | 1.01 | 0.889 | 1.02
16 | CAL-12T |  |  |  |  |  | 0.86 | 0.693 | 0.848 | 0.653 | 0.69 | 0.316 | 0.334 | 0.461 | 0.363 | 0.223 | 1.12 | 1.02 | 1.37 | 1.2 | 1.3
17 | IA-LM |  |  |  |  |  | 0.896 | 1.12 | 1.17 | 0.929 | 1.19 |  |  |  |  |  | 0.778 | 0.728 | 0.966 | 0.582 | 1.04
18 | SW 900 | 0.404 | 0.417 | 0.429 |  | 0.481 | 0.587 | 0.746 | 0.774 | 0.707 | 0.881 | 0.477 | 0.589 | 0.625 | 0.624 | 0.532 |  |  |  |  | 
19 | NCI-H1648 | 0.499 | 0.472 | 0.482 | 0.459 | 0.527 | 0.331 | 0.408 | 0.984 | 0.748 | 0.895 | 0.294 | 0.302 | 0.344 | 0.345 | 0.371 |  |  |  |  | 
20 | A549 | 0.268 | 0.228 |  | 0.263 | 0.205 |  |  |  |  |  |  |  |  |  |  | 0.658 | 0.673 | 0.73 | 0.734 | 0.69
